Data from paper PMC7993140 (Medicinal chemistry research : an international journal for …, 2020).

Experiments:
TDP2 (14M_zTDP2) = target: T1, TDP2 (14M_zTDP2) (Danio rerio, UniProt Q5XJA0); assay: 14M_zTDP2 fluorescence-based biochemical assay; conditions: for TDP2 inhibition at 50 μM: at concentrations up to 50 μM; for IC50: read-out: IC50 (TDP2 inhibition), in-house fluorescence-based biochemical assay, 25 °C, 60 min
T1 sequence (Q5XJA0 121-369): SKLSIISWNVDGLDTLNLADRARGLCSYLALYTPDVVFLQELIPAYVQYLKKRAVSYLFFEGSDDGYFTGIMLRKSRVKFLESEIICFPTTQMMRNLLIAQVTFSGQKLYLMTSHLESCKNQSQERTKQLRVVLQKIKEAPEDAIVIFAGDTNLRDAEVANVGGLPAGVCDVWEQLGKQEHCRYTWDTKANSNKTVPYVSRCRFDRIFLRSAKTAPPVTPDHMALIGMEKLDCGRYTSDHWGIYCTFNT

TDP2 = conditions: read-out: previously reported IC50; previously reported value; cited from earlier work

SMILES | TDP2 inhibition at 50 μM (TDP2 (14M_zTDP2)) | IC50 (TDP2 (14M_zTDP2)) | other results
O=C1NC(=O)c2ccccc2/C1=C/NCc1ccc(O)cc1 [11b, (Z)-4-(((4-hydroxybenzyl)amino)methylene)isoquinoline-1,3(2H,4H)-dione] | no inhibition |  | 
O=C1NC(=O)c2ccccc2C1=Cc1ccncc1 [12c, 4-(pyridin-4-ylmethylene)isoquinoline-1,3(2H,4H)-dione] |  |  | TDP2 inhibition (TDP2 (14M_zTDP2); no concentration stated at the place): reasonable potency
O=C1NC(=O)c2ccccc2C1=Cc1ccc[nH]1 [12d, 4-((1H-pyrrol-2-yl)methylene)isoquinoline-1,3(2H,4H)-dione] | no activity |  | 
Cn1cccc1C=C1C(=O)NC(=O)c2ccccc21 [12e, 4-((1-methyl-1H-pyrrol-2-yl)methylene)isoquinoline-1,3(2H,4H)-dione] | no activity |  | 
O=C1NC(=O)c2ccccc2C1=Cc1cccs1 [12f, 4-(thiophen-2-ylmethylene)isoquinoline-1,3(2H,4H)-dione] | no activity |  | 
O=C1NC(=O)c2ccccc2C1=Cc1ccsc1 [12g, 4-(thiophen-3-ylmethylene)isoquinoline-1,3(2H,4H)-dione] | no activity |  | 
O=C1NC(=O)c2ccccc2C1=Cc1ccc2[nH]ncc2c1 [12h, 4-((1H-indazol-5-yl)methylene)isoquinoline-1,3(2H,4H)-dione] |  | 19 µM | 
O=C1NC(=O)c2ccccc2C1=Cc1ccc2[nH]ccc2c1 [12i, 4-((1H-indol-5-yl)methylene)isoquinoline-1,3(2H,4H)-dione] |  | 13 µM | 
O=C1NC(=O)c2ccccc2C1=Cc1ccc(O)cc1 [12k, 4-(4-hydroxybenzylidene)isoquinoline-1,3(2H,4H)-dione] |  | 10 µM | 
O=C1NC(=O)c2ccccc2C1=Cc1ccc(C(=O)O)cc1 [12q, 4-((1,3-dioxo-2,3-dihydroisoquinolin-4(1H)-ylidene)methyl)benzoic acid] |  | 4.8 µM | 
O=C1Cc2ccccc2C(=O)N1 [compound 8, isoquinoline-1,3-dione, reference compound] |  | 22 µM | IC50 (TDP2): 25 µM
